Laboratory results taken from PubChem BioAssay AID2060605 (Molecular Pharmacology Branch, DTP, NCI, 2025).
Several values for one entry are separate records, joined by “and”; a condition that tells them apart may be missing. Identical values can stand only once.

Tested on: 947758-054-R-J2-PDC spheroid growth, percent test/control
Assay: Anticancer human tumor 947758-054-R-J2-PDC patient-derived colon adenocarcinoma cell line growth inhibition [CLK]
Conditions: spheroids with HUVEC and MSC; for viability, T/C: stronger effect = lower value
Summary of the method: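 Multi-cell-type spheroids combined patient-derived tumor cells with HUVEC endothelial cells and human mesenchymal stem cells. Paired agents were dosed in half-log steps down from about clinical Cmax, or from 10 microM where Cmax was unknown.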

[1] = curve of first compound, second compound 0.0316 µM
[2] = curve of first compound, second compound 0.1 µM
[3] = curve of first compound, second compound 0.316 µM
[4] = curve of first compound, second compound 1 µM
[5] = curve of first compound, second compound 3.16 µM
[6] = curve of first compound, second compound 10 µM
[7] = second compound 0.0316 µM, first compound 0.0316 µM
[8] = second compound 0.0316 µM, first compound 0.1 µM
[9] = second compound 0.0316 µM, first compound 0.316 µM
[10] = second compound 0.0316 µM, first compound 1 µM
[11] = second compound 0.0316 µM, first compound 3.16 µM
[12] = second compound 0.0316 µM, first compound 10 µM
[13] = second compound 0.1 µM, first compound 0.0316 µM
[14] = second compound 0.1 µM, first compound 0.1 µM
[15] = second compound 0.1 µM, first compound 0.316 µM
[16] = second compound 0.1 µM, first compound 1 µM
[17] = second compound 0.1 µM, first compound 3.16 µM
[18] = second compound 0.1 µM, first compound 10 µM
[19] = second compound 0.316 µM, first compound 0.0316 µM
[20] = second compound 0.316 µM, first compound 0.1 µM
[21] = second compound 0.316 µM, first compound 0.316 µM
[22] = second compound 0.316 µM, first compound 1 µM
[23] = second compound 0.316 µM, first compound 3.16 µM
[24] = second compound 0.316 µM, first compound 10 µM
[25] = second compound 1 µM, first compound 0.0316 µM
[26] = second compound 1 µM, first compound 0.1 µM
[27] = second compound 1 µM, first compound 0.316 µM
[28] = second compound 1 µM, first compound 1 µM
[29] = second compound 1 µM, first compound 3.16 µM
[30] = second compound 1 µM, first compound 10 µM
[31] = second compound 3.16 µM, first compound 0.0316 µM
[32] = second compound 3.16 µM, first compound 0.1 µM
[33] = second compound 3.16 µM, first compound 0.316 µM
[34] = second compound 3.16 µM, first compound 1 µM
[35] = second compound 3.16 µM, first compound 3.16 µM
[36] = second compound 3.16 µM, first compound 10 µM
[37] = second compound 10 µM, first compound 0.0316 µM
[38] = second compound 10 µM, first compound 0.1 µM
[39] = second compound 10 µM, first compound 0.316 µM
[40] = second compound 10 µM, first compound 1 µM
[41] = second compound 10 µM, first compound 3.16 µM
[42] = second compound 10 µM, first compound 10 µM
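Also: spheroids exposed to compounds for one week before readout.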
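For viability, T/C in this document: 100% = DMSO vehicle control wells.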

## CC(=O)O[C@H]1C(=O)[C@@]2(C)[C@H]([C@H](OC(=O)c3ccccc3)[C@]3(O)C[C@H](OC(=O)[C@H](O)[C@@H](NC(=O)c4ccccc4)c4ccccc4)C(C)=C1C3(C)C)[C@]1(OC(C)=O)CO[C@@H]1C[C@@H]2O + CN1CCN(c2cc(C(=O)Nc3cc4cc(-c5cnn(C)c5)ccc4cn3)ccn2)CC1
[1]
  IC50: < 0.0316 µM
[2]
  IC50: < 0.0316 µM
[3]
  IC50: < 0.0316 µM
[4]
  IC50: < 0.0316 µM
[5]
  IC50: < 0.0316 µM
[6]
  IC50: < 0.0316 µM
[7]
  viability, T/C: 7.4%
[8]
  viability, T/C: 6.03%
[9]
  viability, T/C: 4.94%
[10]
  viability, T/C: 5.77%
[11]
  viability, T/C: 6.99%
[12]
  viability, T/C: 11.8%
[13]
  viability, T/C: 5.33%
[14]
  viability, T/C: 5.11%
[15]
  viability, T/C: 4.6%
[16]
  viability, T/C: 4.61%
[17]
  viability, T/C: 5.41%
[18]
  viability, T/C: 8.84%
[19]
  viability, T/C: 1.4%
[20]
  viability, T/C: 1.86%
[21]
  viability, T/C: 2.27%
[22]
  viability, T/C: 1.92%
[23]
  viability, T/C: 2.04%
[24]
  viability, T/C: 2.67%
[25]
  viability, T/C: 0.1%
[26]
  viability, T/C: 0.12%
[27]
  viability, T/C: 0.3%
[28]
  viability, T/C: 0.08%
[29]
  viability, T/C: 0.09%
[30]
  viability, T/C: 0.09%
[31]
  viability, T/C: 0.16%
[32]
  viability, T/C: 0.22%
[33]
  viability, T/C: 0.21%
[34]
  viability, T/C: 0.14%
[35]
  viability, T/C: 1.02%
[36]
  viability, T/C: 0.58%
[37]
  viability, T/C: 1.41%
[38]
  viability, T/C: 0.29%
[39]
  viability, T/C: 0.23%
[40]
  viability, T/C: 0.25%
[41]
  viability, T/C: 0.27%
[42]
  viability, T/C: 0.7%

## COc1cccc2c1C(=O)c1c(O)c3c(c(O)c1C2=O)CC(O)(C(=O)CO)CC3OC1CC(N)C(O)C(C)O1 (stereo unspecified) + CN1CCN(c2cc(C(=O)Nc3cc4cc(-c5cnn(C)c5)ccc4cn3)ccn2)CC1
[1]
  IC50: 0.0913 µM
[2]
  IC50: < 0.0316 µM
[3]
  IC50: < 0.0316 µM
[4]
  IC50: < 0.0316 µM
[5]
  IC50: < 0.0316 µM
[6]
  IC50: < 0.0316 µM
[7]
  viability, T/C: 100%
[8]
  viability, T/C: 38.9%
[9]
  viability, T/C: 33.2%
[10]
  viability, T/C: 4.76%
[11]
  viability, T/C: 0.5%
[12]
  viability, T/C: 4.61%
[13]
  viability, T/C: 44.3%
[14]
  viability, T/C: 35.4%
[15]
  viability, T/C: 21.1%
[16]
  viability, T/C: 1.67%
[17]
  viability, T/C: 0.35%
[18]
  viability, T/C: 7.75%
[19]
  viability, T/C: 1.3%
[20]
  viability, T/C: 1.49%
[21]
  viability, T/C: 0.27%
[22]
  viability, T/C: 0.21%
[23]
  viability, T/C: 1.68%
[24]
  viability, T/C: 8.73%
[25]
  viability, T/C: 0.12%
[26]
  viability, T/C: 1.01%
[27]
  viability, T/C: 0.13%
[28]
  viability, T/C: 0.11%
[29]
  viability, T/C: 2.81%
[30]
  viability, T/C: 6.86%
[31]
  viability, T/C: 0.14%
[32]
  viability, T/C: 0.96%
[33]
  viability, T/C: 1.03%
[34]
  viability, T/C: 0.15%
[35]
  viability, T/C: 0.83%
[36]
  viability, T/C: 7.28%
[37]
  viability, T/C: 0.46%
[38]
  viability, T/C: 1.26%
[39]
  viability, T/C: 0.8%
[40]
  viability, T/C: 0.22%
[41]
  viability, T/C: 2.33%
[42]
  viability, T/C: 7.23%

## Nc1ccccc1NC(=O)c1ccc(CNC(=O)OCc2cccnc2)cc1
Compound 0.0316 µM
  viability, T/C: 102% and 80.7%
Compound 0.1 µM
  viability, T/C: 105% and 97.2%
Compound 0.316 µM
  viability, T/C: 115% and 90.4%
Compound 1 µM
  viability, T/C: 96% and 121%
Compound 3.16 µM
  viability, T/C: 77.7% and 55.5%
Compound 10 µM
  viability, T/C: 13.9% and 11.4%
Curve of compound
  IC50: 5.18 µM and 3.66 µM

## O=C(c1cc(Cc2n[nH]c(=O)c3ccccc23)ccc1F)N1CCN(C(=O)C2CC2)CC1
Compound 0.0316 µM
  viability, T/C: 94.1% and 101%
Compound 0.1 µM
  viability, T/C: 93.6% and 90%
Compound 0.316 µM
  viability, T/C: 106% and 101%
Compound 1 µM
  viability, T/C: 107%
Compound 3.16 µM
  viability, T/C: 131% and 101%
Compound 10 µM
  viability, T/C: 177% and 120%
Curve of compound
  IC50: > 10 µM

## CCN1CCN(Cc2ccc(Nc3ncc(F)c(-c4cc(F)c5nc(C)n(C(C)C)c5c4)n3)nc2)CC1 + CN1CCN(c2cc(C(=O)Nc3cc4cc(-c5cnn(C)c5)ccc4cn3)ccn2)CC1
[1]
  IC50: > 1 µM
[2]
  IC50: 0.461 µM
[3]
  IC50: < 0.00316 µM
[4]
  IC50: < 0.00316 µM
[5]
  IC50: < 0.00316 µM
[6]
  IC50: < 0.00316 µM
Second compound 0.0316 µM, first compound 0.00316 µM
  viability, T/C: 145%
Second compound 0.0316 µM, first compound 0.01 µM
  viability, T/C: 133%
[7]
  viability, T/C: 176%
[8]
  viability, T/C: 245%
[9]
  viability, T/C: 98.2%
[10]
  viability, T/C: 46.5%
Second compound 0.1 µM, first compound 0.00316 µM
  viability, T/C: 134%
Second compound 0.1 µM, first compound 0.01 µM
  viability, T/C: 141%
[13]
  viability, T/C: 105%
[14]
  viability, T/C: 108%
[15]
  viability, T/C: 52.7%
[16]
  viability, T/C: 32.8%
Second compound 0.316 µM, first compound 0.00316 µM
  viability, T/C: 4.74%
Second compound 0.316 µM, first compound 0.01 µM
  viability, T/C: 7.5%
[19]
  viability, T/C: 5.93%
[20]
  viability, T/C: 9.21%
[21]
  viability, T/C: 14.7%
[22]
  viability, T/C: 13.2%
Second compound 1 µM, first compound 0.00316 µM
  viability, T/C: 0.18%
Second compound 1 µM, first compound 0.01 µM
  viability, T/C: 2.83%
[25]
  viability, T/C: 0.19%
[26]
  viability, T/C: 0.19%
[27]
  viability, T/C: 0.18%
[28]
  viability, T/C: 2.66%
Second compound 3.16 µM, first compound 0.00316 µM
  viability, T/C: 0.83%
Second compound 3.16 µM, first compound 0.01 µM
  viability, T/C: 0.69%
[31]
  viability, T/C: 0.21%
[32]
  viability, T/C: 0.28%
[33]
  viability, T/C: 2.63%
[34]
  viability, T/C: 3.69%
Second compound 10 µM, first compound 0.00316 µM
  viability, T/C: 0.27%
Second compound 10 µM, first compound 0.01 µM
  viability, T/C: 1.7%
[37]
  viability, T/C: 0.31%
[38]
  viability, T/C: 0.4%
[39]
  viability, T/C: 0.75%
[40]
  viability, T/C: 2.67%

## Cn1ncnc1[C@H]1c2n[nH]c(=O)c3cc(F)cc(c23)N[C@@H]1c1ccc(F)cc1
Compound 0.000316 µM
  viability, T/C: 90.1% and 87.9%
Compound 0.001 µM
  viability, T/C: 103% and 93.8%
Compound 0.00316 µM
  viability, T/C: 96.8% and 101%
Compound 0.01 µM
  viability, T/C: 96.7% and 94.4%
Compound 0.0316 µM
  viability, T/C: 117% and 87.6%
Compound 0.1 µM
  viability, T/C: 130% and 119%
Curve of compound
  IC50: > 0.1 µM

## CNC(=O)c1ccc(Nc2nc(OC3CCCC3)c3c(-c4ccc5nc(C)oc5c4)c[nH]c3n2)c(OC)c1
Compound 0.0316 µM
  viability, T/C: 62.2% [middle of 12 runs]
Compound 1 µM
  viability, T/C: 56.2% [middle of 12 runs]
Compound 3.16 µM
  viability, T/C: 45.1% [middle of 12 runs]
Compound 10 µM
  viability, T/C: 36.8% [middle of 12 runs]
